# Data as given in article PMC7835950 (Frontiers in Chemistry, 2021).
# Read-outs that look alike come from different tables or passages of the source.
# Molecular target: T1, OGDH (Rattus norvegicus, UniProt Q5XI78)
# T1 sequence (Q5XI78 41-1023): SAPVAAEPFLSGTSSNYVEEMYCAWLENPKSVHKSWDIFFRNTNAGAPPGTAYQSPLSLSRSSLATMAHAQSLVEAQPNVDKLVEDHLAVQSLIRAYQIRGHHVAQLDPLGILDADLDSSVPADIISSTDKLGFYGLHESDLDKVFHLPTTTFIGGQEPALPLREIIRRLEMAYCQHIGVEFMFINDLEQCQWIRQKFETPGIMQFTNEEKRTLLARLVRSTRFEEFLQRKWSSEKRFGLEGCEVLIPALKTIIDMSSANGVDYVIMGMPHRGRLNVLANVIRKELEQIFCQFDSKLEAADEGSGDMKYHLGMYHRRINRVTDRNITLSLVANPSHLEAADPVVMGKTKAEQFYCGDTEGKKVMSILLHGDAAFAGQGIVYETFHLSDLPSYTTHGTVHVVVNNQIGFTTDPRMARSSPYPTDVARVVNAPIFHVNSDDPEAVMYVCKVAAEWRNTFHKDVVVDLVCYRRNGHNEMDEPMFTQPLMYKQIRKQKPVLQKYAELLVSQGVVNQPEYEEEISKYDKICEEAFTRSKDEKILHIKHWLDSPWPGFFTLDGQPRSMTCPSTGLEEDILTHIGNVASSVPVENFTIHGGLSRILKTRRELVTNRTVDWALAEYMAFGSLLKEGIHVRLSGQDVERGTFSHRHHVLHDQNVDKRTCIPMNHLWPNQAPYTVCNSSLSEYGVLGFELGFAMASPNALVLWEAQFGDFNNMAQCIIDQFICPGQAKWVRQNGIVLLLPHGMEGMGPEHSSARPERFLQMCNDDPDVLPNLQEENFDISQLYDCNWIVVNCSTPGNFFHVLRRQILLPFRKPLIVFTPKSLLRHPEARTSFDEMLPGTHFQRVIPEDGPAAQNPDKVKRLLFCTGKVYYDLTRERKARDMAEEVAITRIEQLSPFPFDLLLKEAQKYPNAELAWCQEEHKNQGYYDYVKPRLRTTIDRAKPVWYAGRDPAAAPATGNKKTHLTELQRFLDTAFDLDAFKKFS
# T1 sequence (Q01205 69-454 partner): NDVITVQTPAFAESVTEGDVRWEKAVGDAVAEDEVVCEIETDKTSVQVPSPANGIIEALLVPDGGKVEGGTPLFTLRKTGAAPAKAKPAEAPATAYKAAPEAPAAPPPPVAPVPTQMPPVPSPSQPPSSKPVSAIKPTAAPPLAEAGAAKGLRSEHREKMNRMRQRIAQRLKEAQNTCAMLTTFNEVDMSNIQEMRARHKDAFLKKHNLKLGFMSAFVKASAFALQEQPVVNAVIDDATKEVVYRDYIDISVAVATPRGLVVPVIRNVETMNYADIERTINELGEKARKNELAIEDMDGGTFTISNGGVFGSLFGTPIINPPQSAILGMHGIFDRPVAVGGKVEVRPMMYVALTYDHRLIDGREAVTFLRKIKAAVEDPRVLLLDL
# T1 sequence (Q6P6R2 36-509 partner): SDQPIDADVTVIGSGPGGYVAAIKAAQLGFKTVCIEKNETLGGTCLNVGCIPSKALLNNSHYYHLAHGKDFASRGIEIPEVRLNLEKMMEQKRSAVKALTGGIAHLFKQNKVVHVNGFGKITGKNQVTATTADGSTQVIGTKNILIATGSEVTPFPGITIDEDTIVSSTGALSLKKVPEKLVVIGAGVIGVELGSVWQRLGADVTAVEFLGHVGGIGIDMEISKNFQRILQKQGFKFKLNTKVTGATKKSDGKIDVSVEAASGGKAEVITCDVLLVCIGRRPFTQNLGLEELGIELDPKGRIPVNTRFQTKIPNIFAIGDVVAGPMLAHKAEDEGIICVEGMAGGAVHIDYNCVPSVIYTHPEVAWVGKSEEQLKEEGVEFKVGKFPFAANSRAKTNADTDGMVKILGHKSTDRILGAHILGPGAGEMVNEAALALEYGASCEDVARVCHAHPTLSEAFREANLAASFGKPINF
# Test: OADH reaction (OA saturation) catalyzed by the enzyme preparation from rat heart
# Assay type: biochemical
# Set-up: the tissue fractions with the complexes enriched to a degree allowing for a robust detection of the enzymatic activities, have been used; from tissue; host or cells: rat heart
# Details: for Ki / Amax: OADH reaction, heart
# Method: Enzymes catalyzing OGDH and OADH reactions were enriched from rat hearts and livers using polyethylene glycol precipitation, as previously described (Artiukhov et al., [2020]).
# The enzyme activities were assayed in the medium (pH 7.0) containing 50 mM MOPS, 1 mM ThDP, 1 mM MgCl2, 1 mM CaCl2, 1 mM dithiothreitol 0.15 mM Coenzyme A, 0.25 mM NAD^+ and various concentrations of 2-oxo substrates (0–10 mM OG or OA) and their phosphonate analogs (0–5,000 μM SP, GP, or AP). Reactions were started by addition of the enzyme preparations to the assay media. The amount of enzyme preparations (0.074 mg protein for the preparation from liver and 0.023 mg protein for the preparation from heart) were chosen to induce the lowest reliably measured reaction rate (ΔA340 = 0.001/min) at 0.01 mM OA without the phosphonates.
# Reaction rates were calculated from linear parts of the product accumulation curves (up to 10 min, dependent on the reaction rate), excluding the initial region, where mixing the reagents and solubilization of the preparation affected the optical density.
# Non-linear regression was used to approximate the experimental dependences of the reaction rates on the OG or OA concentration according to the Michaelis-Menten equation ( a=Amax*[S]/Km+[S] ) or its sum ( a=Amax*[S]/Km+[S]+Amax,2*[S]/Km,2+[S] ). The former equation describes one type of the active sites. […] The assumption was based on the presence of the two enzymes, OGDH and OADH, in the employed preparations.
# The kinetic data were also analyzed by linear regression, using the known methods of the linearization of the Michaelis-Menten equation in the Lineweaver-Burk ( 1/a=1/Amax(1+Km/[S]) ) and Eadie-Hofstee ( a=Amax−Kmv/[S] ) coordinates. Due to the several orders of magnitude difference in the values of Km,1 and Km,2, the linear regression required separate analysis of the dependencies in the intervals of the low and high concentrations of 2-oxoadipate. The Km and Amax values obtained in independent experiments using the non-linear and linear regression analyses of the experimental data, were averaged and presented as Mean ± Standard Error of Mean.
# To determine the inhibition constants (Ki), the effective values of Kmeff and Amaxeff , calculated from the hyperbolic or linear approximations as described above, were plotted against the concentration of the inhibitors ([I]). The linear regression of the equation Kmeff/Amaxeff=Km/Amax(1+[I]/Ki) , (Cornish-Bowden, [1979]) was applied to find the Intercept (Km/Amax) and Slope (Km/(Amax*Ki)) of a dependence. The values of Ki were determined as the ratio of the corresponding Intercepts to the Slopes. In the two-site model, the Ki(1) and Ki(2) were calculated separately from the linear approximations of Km,1eff/Amax,1eff vs. [I] and Km,2eff/Amax,2eff vs. [I] dependences, respectively. The standard errors of Ki were determined from means and standard errors of the Intercepts and the Slopes, using the previously described formula for standard deviation of a fraction (Bunik et al., [1999]). The Ki values obtained from the non-linear and linear regression analyses of the experimental data were averaged and presented as Mean ± Standard Error of Mean.
# [1] = 0–10 mM OA, Michaelis-Menten, read-out: Ki, MM
# [2] = Eadie-Hofstee, read-out: Ki, EH
# [3] = Lineweaver-Burk, read-out: Ki, LB
# [4] = average of MM, LB, EH, read-out: Ki, Average
SMILES,Ki [1] [µM],Ki [2] [µM],Ki [3] [µM],Ki [4] [µM],Amax ([I] 2 µM),Amax ([I] 10 µM),Amax ([I] 50 µM),Amax ([I] 200 µM),Amax ([I] 0.5 µM),Amax ([I] 1000 µM),"Amax, OA saturation (heart preparation)"
"O=C(O)CCCC(=O)P(=O)(O)O [GP, glutaryl phosphonate]",3.8 ± 0.1,3.4 ± 0.5,1.1 ± 0.2,2.8 ± 0.8,0.105 ± 0.003 µmol/min per mg of protein,0.131 ± 0.002 µmol/min per mg of protein,0.139 ± 0.010 µmol/min per mg of protein,0.103 ± 0.018 µmol/min per mg of protein,–,–,–
"O=C(O)CCCCC(=O)P(=O)(O)O [AP, adipoyl phosphonate]",49 ± 8,40 ± 7,58 ± 8,49 ± 5,0.096 ± 0.002 µmol/min per mg of protein,0.098 ± 0.002 µmol/min per mg of protein,0.109 ± 0.002 µmol/min per mg of protein,0.116 ± 0.002 µmol/min per mg of protein,0.101 ± 0.002 µmol/min per mg of protein,–,–
"O=C(O)CCC(=O)P(=O)(O)O [SP, succinyl phosphonate]",10.2 ± 0.2,6.3 ± 0.1,4.7 ± 0.3,7.1 ± 1.6,–,0.109 ± 0.001 µmol/min per mg of protein,0.109 ± 0.006 µmol/min per mg of protein,0.106 ± 0.004 µmol/min per mg of protein,–,0.075 ± 0.123 µmol/min per mg of protein,–
"O=C(O)CCCC(=O)C(=O)O [OA, 2-oxoadipate]",–,–,–,–,–,–,–,–,–,–,0.102 ± 0.008 μmol/min per mg of protein
